The source of these data is patent US9181223B2, “2-aminopyrimidin-6-ones and analogs exhibiting anti-cancer and anti-proliferative activities” (Deciphera Pharmaceuticals, LLC, priority 2013, dated 2015).

Each structure is given as a SMILES string. Where two headings read alike, the source gives them in different places.

For experiment [1], the system named is PC-3 M-luc cells. Kind of experiment: PC-3 peritibial implant model of cancer bone metastasis. The following applies: oral dose of 30 mg/kg twice daily for 39 days; scale 0-4; vehicle-treated animals 4. Format: in vivo, mouse. The text has this: PC-3 Peritibial Implant Model of Cancer Bone Metastasis To evaluate in vivo anti-cancer activity of compounds of formula I, the PC-3 M-luc peritibial injection model of bone invasiveness model was employed. Briefly, PC-3 M-luc cells were obtained from Xenogen Corporation (Caliper Life Sciences) and expanded using MEM media modified with L-Glutamine (Cell Gro® #10-045-CV) supplemented with 10% fetal bovine serum, 1% penicillin-streptomycin-glutamine, 1% non-essential amino acids, and 1% MEM vitamins in 5% CO2 atmosphere at 37° C. Six to 7 week old male nude mice (Crl:NU-Foxnlnu) were obtained from Charles River Laboratories. Test mice were implanted peritibially on Day 0 with 1×10^6 cells/mouse (0.1 ml) using an insulin syringe with a fixed 28-gauge needle. The needle was inserted at the ankle between the tibia and fibula until the bevel of the needle reached approximately half way between the knee and ankle. Treatments began on Day 0. Animals were dosed by oral gavage twice daily for the study duration. All procedures carried out in this experiment were conducted in compliance with all the laws, regulations and guidelines of the National Institutes of Health (NIH). […]

Experiment [2] has as its system osteoclast precursors. Kind of experiment: Osteoclast tartrate-resistant acid phosphatase assay. Format: cell-based. The settings on record: tartrate-resistant acid phosphatase activity, RANKL and M-CSF, 7-14 days. As to the method: Osteoclast Tartrate-Resistant Acid Phosphatase Assay
A serial dilution of test compound was dispensed into a 384-well black clear bottom plate (Nalge Nunc International, Rochester, N.Y.). Compound was diluted by the addition of DMEM media supplemented with 10% characterized fetal bovine serum (Invitrogen, Carlsbad, Calif.). Diluted compound was transferred to a 384-well black clear bottom plate. Two-thousand five hundred osteoclast precursors (Lonza, Walkersville, Md.) were added per well in growth media containing Receptor Activator of Nuclear Factor Kappa-beta ligand (RANKL) and M-CSF (R&D Systems, Minneapolis, Minn.). Plates were incubated for 7-14 days at 37 degrees Celsius, 5% CO2, and 95% humidity to allow differentiation of osteoclast precursors. At the end of the incubation period, 10 μL of supernatant from each well was transferred to a clear 384-well plate. Tartrate-resistant acid phosphatase activity in the supernatant samples was determined using an acid phosphatase assay kit (Sigma, St. Louis, Mo.). Absorbance was measured at 550 nm using a plate reader. Data was analyzed using Prism software (Graphpad, San Diego, Calif.) to calculate IC50 values.

The target in experiment [3] is T1, unphosphorylated PDGFRβ kinase (uPDGFRβ, Seq. ID No. 3) (Homo sapiens, UniProt P09619).
T1 construct: purchased DeCode
T1 sequence (P09619 557-1106): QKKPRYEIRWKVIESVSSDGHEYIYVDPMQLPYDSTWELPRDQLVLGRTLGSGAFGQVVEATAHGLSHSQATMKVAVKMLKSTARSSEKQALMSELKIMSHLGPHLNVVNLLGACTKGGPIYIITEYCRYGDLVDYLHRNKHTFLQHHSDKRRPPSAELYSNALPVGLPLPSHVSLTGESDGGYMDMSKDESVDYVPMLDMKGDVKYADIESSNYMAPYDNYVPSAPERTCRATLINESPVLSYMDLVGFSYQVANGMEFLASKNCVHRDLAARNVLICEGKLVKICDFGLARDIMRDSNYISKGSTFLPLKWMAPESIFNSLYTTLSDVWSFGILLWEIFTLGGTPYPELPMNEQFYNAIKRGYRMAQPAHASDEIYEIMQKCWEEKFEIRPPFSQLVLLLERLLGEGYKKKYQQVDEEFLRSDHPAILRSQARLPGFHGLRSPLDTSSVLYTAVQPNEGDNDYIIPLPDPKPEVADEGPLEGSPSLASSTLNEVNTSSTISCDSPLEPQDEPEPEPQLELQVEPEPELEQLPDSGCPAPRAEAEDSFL
Kind of experiment: uPDGFRβ kinase assay (ADP production coupled to pyruvate kinase/lactate dehydrogenase). The following applies: enzymatic assay, ATP 500 μM. Format: biochemical. On the procedure: Unphosphorylated […]β) Kinase (Seq. ID No. 3) Assay Activity of unphosphorylated PDGFRβ kinase ([…] No. 3) was determined by following the production of ADP from the kinase reaction with ATP and poly E4Y as substrates through coupling with the pyruvate kinase/lactate dehydrogenase system (e.g., Schindler et al. Science (2000) 289: 1938-1942). In this assay, the oxidation of NADH (thus the decrease at A340 nm) was continuously monitored spectrophometrically. The reaction mixture (100 μL) contained PDGFRβ (DeCode, 15.7 nM), polyE4Y (2.5 mg/mL), MgCl2 (10 mM), pyruvate kinase (4 units), lactate dehydrogenase (0.7 units), phosphoenol pyruvate (1 mM) and NADH (0.28 mM) and ATP (500 μM) in a 90 mM Tris buffer containing 0.2% octyl-glucoside and 1% DMSO, at pH 7.5. The inhibition reaction was started by mixing serial diluted test compound with the above reaction mixture. The absorption at 340 nm was monitored continuously for 4 h at 30° C. on a Polarstar Optima or Synergy 2 plate reader. The reaction rate was calculated using the 1.5 to 2.5 h time frame. Percent inhibition was obtained by comparison of reaction rate with that of a control (i.e. with no test compound). IC50 values were calculated from a series of percent inhibition values determined at a range of inhibitor concentrations using software routines as implemented in the GraphPad Prism software package.

The target of experiment [4] is T2, unphosphorylated c-KIT kinase (uKIT, Seq. ID no. 2) (Homo sapiens, UniProt P10721).
T2 construct: uKit with N-terminal GST fusion used for screening
T2 sequence (P10721 with tags, fused parts or gaps): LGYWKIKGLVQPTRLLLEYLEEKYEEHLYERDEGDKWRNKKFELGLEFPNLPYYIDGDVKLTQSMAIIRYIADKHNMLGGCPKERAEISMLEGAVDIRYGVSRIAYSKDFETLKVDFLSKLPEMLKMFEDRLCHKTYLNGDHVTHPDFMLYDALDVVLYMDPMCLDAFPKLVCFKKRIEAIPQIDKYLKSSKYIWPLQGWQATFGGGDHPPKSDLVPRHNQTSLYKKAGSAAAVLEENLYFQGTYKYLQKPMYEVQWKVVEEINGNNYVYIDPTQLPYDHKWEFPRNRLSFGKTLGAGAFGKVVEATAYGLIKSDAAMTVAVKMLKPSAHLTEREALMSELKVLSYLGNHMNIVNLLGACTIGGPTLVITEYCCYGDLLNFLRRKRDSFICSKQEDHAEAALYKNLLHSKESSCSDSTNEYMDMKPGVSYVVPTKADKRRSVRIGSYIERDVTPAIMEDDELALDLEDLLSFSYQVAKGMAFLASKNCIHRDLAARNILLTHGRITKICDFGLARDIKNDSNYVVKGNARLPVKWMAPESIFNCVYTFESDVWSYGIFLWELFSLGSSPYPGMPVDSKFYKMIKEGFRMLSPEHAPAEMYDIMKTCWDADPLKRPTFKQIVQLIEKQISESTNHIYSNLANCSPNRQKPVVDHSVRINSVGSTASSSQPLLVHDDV
Kind of experiment: uKit kinase assay (ADP production coupled to pyruvate kinase/lactate dehydrogenase). Format: biochemical. On the procedure:
In this assay, the oxidation of NADH (thus the decrease at A340 nm) was continuously monitored spectrophometrically. […] The inhibition reaction was started by mixing serial diluted test compound with the above reaction mixture. The absorption at 340 nm was monitored continuously for 4 hours at 30° C. on Synergy 2 plate reader (BioTech).

Experiment [5] relates to M-NFS-60 cells. Kind of experiment: M-NFS-60 cell proliferation assay (resazurin). The settings on record: 67 h incubation. Format: cell-based. As to the method:
M-NFS-60 cells (catalog #CRL-1838) were obtained from the American Type Culture Collection (ATCC, Manassas, Va.). Briefly, cells were grown in suspension in RPMI 1640 medium supplemented with 10% characterized fetal bovine serum (Invitrogen, Carlsbad, Calif.), 0.05 mM 2-mercaptoethanol, and 20 ng/mL mouse recombinant macrophage colony stimulating factor (M-CSF) at 37° C., 5% CO2, and 95% humidity. Cells were allowed to expand until reaching saturation at which point they were subcultured or harvested for assay use.
M-NFS-60 Cell Proliferation Assay
A serial dilution of test compound was dispensed into a 384-well black clear bottom plate (Corning, Corning, N.Y.). Two thousand five hundred cells were added per well in 50 μL complete growth medium. Plates were incubated for 67 h at 37° C., 5% CO2, and 95% humidity. At the end of the incubation period 10 μL of a 440 µM solution of resazurin (Sigma, St. Louis, Mo.) in PBS was added to each well and incubated for an additional 5 h at 37° C., 5% CO2, and 95% humidity. Plates were read on a Synergy2 reader (Biotek, Winooski, Vt.) using an excitation of 540 nm and an emission of 600 nm. IC50 values were calculated from a series of percent inhibition values determined at a range of inhibitor concentrations using software routines as implemented in the GraphPad Prism software package.

Experiment [6] has as its target T3, phospho-FMS in THP-1 cells (Homo sapiens, UniProt P07333).
T3 construct: endogenous in cells; host or cells: THP-1 (ATCC TIB-202)
Kind of experiment: Phospho-FMS ELISA assay in THP-1 cells. In kind it is cell-based. The following applies: 4 hours compound, M-CSF stimulation 5 minutes, read-out: pFMS inhibition in THP-1 cells. As to the method:
Cells were allowed to expand until reaching 70-95% confluency at which point they were subcultured or harvested for assay use.
In a separate 96 well black clear bottom plate, one hundred and fifty thousand THP-1 cells were added per well in 100 μL in assay medium. Fifty microliters of diluted compound was then added to the cells. Plates were incubated for 4 hours at 37 degrees Celsius, 5% CO2, 95% humidity. […] Lysates were prepared and used to perform the phospho-FMS ELISA as described by the manufacturer (catalog #DYC3268, R & D Systems, Minneapolis, Minn.). GraphPad Prism was used to calculate IC50 values obtained from data generated from the ELISA assay.

Experiment [7] addresses T4, unphosphorylated c-FMS kinase (uFMS, Seq. ID no. 1) (Homo sapiens, UniProt P07333).
T4 construct: purchased Millipore
T4 sequence (P07333 538-972): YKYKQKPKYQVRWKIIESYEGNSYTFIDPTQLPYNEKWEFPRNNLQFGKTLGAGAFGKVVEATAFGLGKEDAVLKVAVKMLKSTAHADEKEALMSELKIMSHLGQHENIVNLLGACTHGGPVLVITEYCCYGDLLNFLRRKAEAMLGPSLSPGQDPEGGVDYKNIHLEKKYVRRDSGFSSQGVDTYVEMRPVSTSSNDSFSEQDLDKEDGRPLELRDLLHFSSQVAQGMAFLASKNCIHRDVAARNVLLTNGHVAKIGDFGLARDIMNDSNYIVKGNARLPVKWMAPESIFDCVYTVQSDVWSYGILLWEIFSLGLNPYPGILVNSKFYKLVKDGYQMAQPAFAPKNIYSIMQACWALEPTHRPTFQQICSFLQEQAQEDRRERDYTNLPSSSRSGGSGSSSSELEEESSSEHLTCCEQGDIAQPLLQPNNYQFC
Kind of experiment: uFMS kinase assay (ADP production coupled to pyruvate kinase/lactate dehydrogenase). In kind it is biochemical. The settings on record: enzymatic assay, ATP 500 μM. As to the method: uFMS Kinase (Seq. ID No. 1) Assay
In this assay, the oxidation of NADH (thus the decrease at A340 nm) was continuously monitored spectrophometrically. The reaction mixture (100 μL) contained FMS (purchased from Millipore) (10 nM), polyE4Y (1 mg/mL), MgCl2 (10 mM), pyruvate kinase (4 units), lactate dehydrogenase (0.7 units), phosphoenol pyruvate (1 mM), NADH (0.28 mM) and ATP (500 μM) in 90 mM Tris buffer containing 0.2% octyl-glucoside and 1% DMSO, pH 7.5. The inhibition reaction was started by mixing serial diluted test compound with the above reaction mixture. The absorption at 340 nm was monitored continuously for 4 hours at 30° C. on Synergy 2 plate reader. The reaction rate was calculated using the 3 to 4 h time frame. Percent inhibition was obtained by comparison of reaction rate with that of a control (i.e. in the absence of test compound). IC50 values were calculated from a series of percent inhibition values determined at a range of inhibitor concentrations using software routines as implemented in the GraphPad Prism software package.

T3 sequence (P07333 20-972): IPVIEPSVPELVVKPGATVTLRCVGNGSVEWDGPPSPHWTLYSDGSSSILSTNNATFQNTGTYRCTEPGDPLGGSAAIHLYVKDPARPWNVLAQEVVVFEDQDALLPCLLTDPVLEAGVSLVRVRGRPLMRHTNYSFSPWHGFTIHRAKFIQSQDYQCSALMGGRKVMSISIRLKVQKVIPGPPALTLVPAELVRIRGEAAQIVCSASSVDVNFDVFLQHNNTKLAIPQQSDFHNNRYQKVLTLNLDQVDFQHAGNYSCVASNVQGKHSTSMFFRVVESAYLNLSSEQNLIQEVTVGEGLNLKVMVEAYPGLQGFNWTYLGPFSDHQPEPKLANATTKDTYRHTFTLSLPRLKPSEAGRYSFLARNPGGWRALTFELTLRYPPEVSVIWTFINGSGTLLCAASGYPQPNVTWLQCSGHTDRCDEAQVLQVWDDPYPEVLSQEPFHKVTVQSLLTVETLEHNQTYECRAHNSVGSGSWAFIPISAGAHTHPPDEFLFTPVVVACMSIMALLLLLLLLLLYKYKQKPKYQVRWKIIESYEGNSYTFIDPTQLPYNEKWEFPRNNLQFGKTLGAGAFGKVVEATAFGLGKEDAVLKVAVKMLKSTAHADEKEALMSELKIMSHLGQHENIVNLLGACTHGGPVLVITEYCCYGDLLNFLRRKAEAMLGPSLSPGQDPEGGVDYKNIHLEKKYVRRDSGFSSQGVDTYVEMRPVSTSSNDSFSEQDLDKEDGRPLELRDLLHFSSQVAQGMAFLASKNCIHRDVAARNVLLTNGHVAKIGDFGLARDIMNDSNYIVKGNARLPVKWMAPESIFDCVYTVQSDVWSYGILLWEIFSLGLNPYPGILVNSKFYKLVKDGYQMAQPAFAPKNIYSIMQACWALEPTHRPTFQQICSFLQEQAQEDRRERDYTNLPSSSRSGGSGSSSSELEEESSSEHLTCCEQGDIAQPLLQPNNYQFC

Take `Cc1nc(-c2cnc(NC(C)C)n(C)c2=O)ccc1Oc1ccnc(-c2cnn(C)c2)c1` [Example 10, 2-(isopropylamino)-3-methyl-5-(6-methyl-5-((2-(1-methyl-1H-pyrazol-4-yl)pyridin-4-yl)oxy)pyridin-2-yl)pyrimidin-4(3H)-one]: in experiment [1], the lesion score is 2. For the same compound, the IC50 in experiment [2] is under 10 nM; in experiment [3], over 1000 nM; in experiment [4], 100 to 1000 nM.

Regarding `Cc1nc(-c2cnc(N3CCC(F)(F)C3)[nH]c2=O)ccc1Oc1ccnc(-c2cnn(C)c2)c1` [Example 30, 2-(3,3-difluoropyrrolidin-1-yl)-5-(6-methyl-5-((2-(1-methyl-1H-pyrazol-4-yl)pyridin-4-yl)oxy)pyridin-2-yl)pyrimidin-4(3H)-one], the IC50 in experiment [2] is 10 to 100 nM; in experiment [5], 100 to 1000 nM; in experiment [3], over 1000 nM; in experiment [6], 10 to 100 nM; in experiment [7], 10 to 100 nM; in experiment [4] (enzymatic assay, ATP 2000 μM, read-out: uKIT), over 1000 nM.
